Where two headings read alike, the source gives them in different places.

Data set [1] relates to phrenic-diaphragm preparation. The data set is described as follows: Neuromuscular blocking activity in vitro, phrenic-diaphragm preparation. To be noted: rat phrenic-diaphragm, 37° C., cumulative concentrations, read-out: EC50 (effective concentration able to reduce the muscular contraction of 50%). Also noted: species or system male Sprague-Dawley rats. Here is the method:
(§1) The neuromuscular blocking activity has been evaluated:
in vitro, using the phrenic-diaphragm preparation according to the method described by Bulbring E. (Brit. J. Pharmac. Chemother. 1, 38, 1946). The preparation, taken from male Sprague-Dawley rats weighing 200-250 g, was placed into a bath for isolated organs, thermostatically kept at 37° C. and containing a nutritional liquid oxygenated with […] carboxygen. The phrenic nerve was stimulated by means of square wave impulses (12 per min., duration 0.5 msec., overmaximal voltage). […] The dose-effect curve, determined for each of them, allowed to calculate the EC50 or effective concentration able to reduce the muscular contraction of 50% (Table 1);

For data set [2], the system named is arterial blood pressure and heart rate. The data set is described as follows: Cardiovascular effects (arterial blood pressure and heart rate) in vivo. To be noted: rat, i.v.; for Arterial blood pressure Δ % / Heart rate Δ %: at ED50 on muscular contraction. Also noted: species or system male Sprague-Dawley rats. The method, then: (§2) in vivo, using the sciatic-gastrocnemious preparation, substantially following the method described by Hughes R. (Br. J. Anaesth. 44, 27, 1972). Male Sprague-Dawley rats weighing 200-250 g, anaesthetized (urethane 1,2 g/kg i.p.) and submitted to forced ventilation, were treated. The sciatic nerve was stimulated at a rate of 6 impulses per min. by means of square waves and overmaximal voltage with a duration of 0.5 msec. The left carotid artery was incannulated for the continuous registration of arterial blood pressure and heart rate.
(§3) The compounds to be tested were administered by i.v. route at increasing doses, given at intervals of at least 30 min. from one to another and, in any case, after the effect of previous administration had completely exhausted.
(§4) In addition, the time of latence (the interval between the administration and the maximal effect) and that of complete recovery have been determined.

The subject of data set [3] is sciatic-gastrocnemious preparation. The data set is described as follows: Neuromuscular blocking activity in vivo, sciatic-gastrocnemious preparation. Also noted: species or system male Sprague-Dawley rats. Particulars: for ED50: iv, read-out: ED50 (effective dose causing the 50% reduction of muscular contraction). Here is the method:
as §1, §2, §3, §4

Data set [4] in a line: Acute toxicity (LD50) in rat. The arrangement: species or system male Sprague-Dawley rats. To be noted: in vivo, iv, Litchfield and Wilcoxon. The method, then: The LD50 were then calculated according to the method of Litchfield J. T. and Wilcoxon F. J. (J. Pharmac. Exp. Ther., 95, 99, 1949).
Data set [5] has as its system skeletal neuromuscular junction. To be noted: known compound of the commerce; cited from earlier work.
[6] abbreviates: rat, i.v., anaesthetized (urethane).

The ED50 is the dose that gives a 50% effect, or the effect in half of the subjects. As usually defined, the LD50 is the dose at which mortality reaches 50%. Low readings indicate greater toxicity, high ones lower toxicity. Regarding `Fc1ccc(-c2c[n+]3ccccc3n2CCCCCCn2c(-c3ccc(F)cc3)c[n+]3ccccc23)cc1` [Example 1, 1,1'-(1,6-Hexamethylene)bis[2-(4'-fluoro)phenyl]imidazo[1,2-a]pyridinium perchlorate], the EC50 in data set [1] was 15 µM. In data set [2], the “Arterial blood pressure Δ %” value is listed as -37% and the “Heart rate Δ %” value was “+28%”. Also, in data set [3] (setting [6]), the ED50 was found to be 3 µg/kg. Moreover, in data set [3] (rat, i.v.), the “Latence (interval between the administration and the maximal effect)” value came to 2.2 min; the “Recovery (time of complete recovery)” value came to 7.9 min. The compound further yielded an LD50 in data set [4] of 3.9 µmol/kg.

As for `c1ccc(-c2c[n+]3ccccc3n2CCCCCCCCn2c(-c3ccccc3)c[n+]3ccccc23)cc1` [Example 2, 1,1'-(1,8-Octamethylene)bis-2-phenylimidazo[1,2-a]piridinium perchlorate], the EC50 in data set [1] was found to be 11.9 µM. In data set [2], the “Arterial blood pressure Δ %” value is recorded as -45% and the “Heart rate Δ %” value is “+22%”. Also, in data set [3] (setting [6]), the ED50 worked out at 1.9 µg/kg. Besides, in data set [3] (rat, i.v.), the “Latence (interval between the administration and the maximal effect)” value came out at 2.2 min; the “Recovery (time of complete recovery)” value turned out to be 9.2 min. The LD50 in data set [4] was found to be 2.7 µmol/kg.

As to `Cc1c(-c2ccccc2)n(CCCCCCCCn2c(-c3ccccc3)c(C)[n+]3ccccc23)c2cccc[n+]12` [Example 3, 1,1'-(1,8-Octamethylene)bis(2-phenyl-3-methyl)imiadazo[1,2-a]pyridinium perchlorate], in data set [1], the EC50 worked out at 14.3 µM. Further, in data set [2], the “Arterial blood pressure Δ %” value is on record as -28% and the “Heart rate Δ %” value was “+40%”. For the same compound, the 50% effective dose (ED50) in data set [3] (setting [6]) is 1.6 µg/kg. Also, in data set [3] (rat, i.v.), the “Latence (interval between the administration and the maximal effect)” value is 1.2 min; the “Recovery (time of complete recovery)” value came to 5.0 min. Also, in data set [4], the LD50 amounted to 2 µmol/kg.

Regarding `Cc1c(-c2ccccc2)n(CCCCn2c(-c3ccccc3)c(C)[n+]3ccccc23)c2cccc[n+]12` [Example 4, 1,1'-(1,4-Tetramethylene)bis(2-phenyl-3-methyl)imidazo[1,2-a]pyridinium perchlorate], in data set [1], the EC50 stood at 28.7 µM. In data set [2], the “Arterial blood pressure Δ %” value is recorded as -28% and the “Heart rate Δ %” value is “+1%”. Moreover, in data set [3] (setting [6]), the ED50 was determined as 5 µg/kg. In data set [3] (rat, i.v.), the “Latence (interval between the administration and the maximal effect)” value stood at 1.3 min; the “Recovery (time of complete recovery)” value was 6.2 min. This compound showed an LD50 in data set [4] of 4.3 µmol/kg.

On to `COc1ccc(-c2c[n+]3ccccc3n2CCCCCCn2c(-c3ccc(OC)cc3)c[n+]3ccccc23)cc1` [Example 5, 1,1'-(1,6-Hexamethylene)bis[2-(4'-methoxy)phenyl]imidazo[1,2-a]pyridinium bromide monohydrate], for which the EC50 in data set [1] came to 14.7 µM. In addition, in data set [2], the “Arterial blood pressure Δ %” value is -39% and the “Heart rate Δ %” value is “+26%”. The ED50 in data set [3] (setting [6]) amounted to 1.9 µg/kg. Also, in data set [3] (rat, i.v.), the “Latence (interval between the administration and the maximal effect)” value stood at 1.5 min; the “Recovery (time of complete recovery)” value came out at 6.4 min. In data set [4], the LD50 was 2.6 µmol/kg.

As to `Brc1ccc(-c2c[n+]3ccccc3n2CCCCCCn2c(-c3ccc(Br)cc3)c[n+]3ccccc23)cc1` [Example 7, 1,1'-(1,6-Hexamethylene)bis[2-(4-bromophenyl)]imidazo[1,2-a]pyridinium bromide], the EC50 in data set [1] is 15.4 µM. Moreover, in data set [2], the “Arterial blood pressure Δ %” value is reported as -50% and the “Heart rate Δ %” value is -8%. For the same compound, the ED50 in data set [3] (setting [6]) is 3 µg/kg. In addition, in data set [3] (rat, i.v.), the “Latence (interval between the administration and the maximal effect)” value was 1.5 min; the “Recovery (time of complete recovery)” value stood at 9.8 min. For the same compound, in data set [4], the LD50 is 6 µmol/kg.

Take `Cc1c(-c2ccccc2)n(CCCCCCn2c(-c3ccccc3)c(C)[n+]3ccccc23)c2cccc[n+]12` [Example 8, 1,1'-(1,6-Hexamethylene)bis(2-phenyl-3-methyl)imidazo[1,2-a]pyridinium perchlorate]: the EC50 in data set [1] is 13.6 µM. Further, in data set [2], the “Arterial blood pressure Δ %” value is recorded as -40% and the “Heart rate Δ %” value is “+68%”. Moreover, the ED50 in data set [3] (setting [6]) came out at 1.3 µg/kg. For the same compound, in data set [3] (rat, i.v.), the “Latence (interval between the administration and the maximal effect)” value turned out to be 2.1 min; the “Recovery (time of complete recovery)” value was 7.7 min. Also, the 50% lethal dose (LD50) in data set [4] was 2 µmol/kg.

For the compound `c1ccc(-c2c[n+]3ccccc3n2CCCCn2c(-c3ccccc3)c[n+]3ccccc23)cc1` [Example 9, 1,1'-(1,4-Tetramethylene)bis-2-phenylimidazo[1,2-a]pyridinium perchlorate], the EC50 in data set [1] came to 28.9 µM. Moreover, in data set [2], the “Arterial blood pressure Δ %” value is recorded as -31% and the “Heart rate Δ %” value is on record as “+25%”. Besides, the ED50 in data set [3] (setting [6]) stood at 3.3 µg/kg. Also, in data set [3] (rat, i.v.), the “Latence (interval between the administration and the maximal effect)” value amounted to 2.1 min; the “Recovery (time of complete recovery)” value was 7.0 min. Moreover, in data set [4], the median lethal dose (LD50) came out at 3.2 µmol/kg.

On to `c1ccc(-c2c[n+]3ccccc3n2CCn2c(-c3ccccc3)c[n+]3ccccc23)cc1` [Example 10, 1,1'-(1,2-Ethylene)bis-2-phenylimidazo[1,2-a]pyridinium perchlorate], for which the EC50 in data set [1] worked out at 31.4 µM. Moreover, in data set [2], the “Arterial blood pressure Δ %” value is reported as -30% and the “Heart rate Δ %” value is reported as “+28%”. Besides, in data set [3] (setting [6]), the ED50 came out at 4 µg/kg. Also, in data set [3] (rat, i.v.), the “Latence (interval between the administration and the maximal effect)” value turned out to be 2.8 min; the “Recovery (time of complete recovery)” value worked out at 14.0 min. The LD50 in data set [4] is 8.8 µmol/kg.

`c1ccc(-c2c[n+]3ccccc3n2CCCCCCn2c(-c3ccccc3)c[n+]3ccccc23)cc1` [Example 11, 1,1'-(1,6-Hexamethylene)bis-2-phenylimidazo[1,2-a]pyridinium perchlorate]: in data set [1], the EC50 was 12.9 µM. Also, in data set [2], the “Arterial blood pressure Δ %” value is -40% and the “Heart rate Δ %” value is “+42%”. Also, in data set [3] (setting [6]), the ED50 stood at 2.1 µg/kg. Further, in data set [3] (rat, i.v.), the “Latence (interval between the administration and the maximal effect)” value was 2.3 min; the “Recovery (time of complete recovery)” value is 8.8 min. The LD50 in data set [4] worked out at 3.1 µmol/kg.

As for `Cc1c(-c2ccccc2)n(CCn2c(-c3ccccc3)c(C)[n+]3ccccc23)c2cccc[n+]12` [Example 12, 1,1'-(1,2-Ethylene)bis(2-phenyl-3-methyl)imidazo[1,2-a]pyridinium perchlorate], in data set [1], the EC50 stood at 115 µM. In data set [2], the “Arterial blood pressure Δ %” value is reported as -5% and the “Heart rate Δ %” value is “+6%”. Moreover, the “Arterial blood pressure Δ % at minimal active dose” value in data set [2] (at minimal active dose on muscular contraction) is -24%. Moreover, the ED50 in data set [3] (Rattus norvegicus) was determined as 5.6 µg/kg. Moreover, in data set [3] (rat, i.v.), the “Latence (interval between the administration and the maximal effect)” value stood at 2.6 min; the “Recovery (time of complete recovery)” value was determined as 12.2 min. In data set [4], this compound registered an LD50 of 9.7 µmol/kg.

`Cc1c(-c2ccccc2)n(/N=N/n2c(-c3ccccc3)c(C)[n+]3ccccc23)c2cccc[n+]12` [Fazadinium bromide, 1,1-azabis 3-methyl-2-phenylimidazo 1,2-a pyridinium bromide, reference compound]: the EC50 in data set [1] amounted to 13.9 µM. For the same compound, in data set [2], the “Arterial blood pressure Δ %” value is on record as -16% and the “Heart rate Δ %” value was “+30%”. The ED50 in data set [3] (setting [6]) came out at 1 µg/kg. In data set [3] (rat, i.v.), the “Latence (interval between the administration and the maximal effect)” value came out at 1.5 min; the “Recovery (time of complete recovery)” value is 6.6 min; the “activity in vivo” value is listed as “active”. In data set [5], the “known activity of the standard” value is “competitive skeletal muscle paralysing activity”. In addition, the LD50 in data set [4] turned out to be 1.5 µmol/kg.
